Test results from patent US10351547B2, “Somatostatin modulators and uses thereof” (priority 2016, dated 2019).

Target: human SSTR2 (Homo sapiens (Human), UniProt P30874)
Test: Human SSTR2 intracellular cAMP functional assay for agonists (HTRF)
Type: cell-based
Settings: not given
Procedure, shortened: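 Cells bearing human SSTR2 exposed to compound for 20 minutes at 37 °C; after lysis, cAMP measured by time-resolved fluorescence (HTRF) and converted via a standard curve. EC50 calculated from cAMP versus compound concentration.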

human SSTR2, sequence (P30874 whole entry): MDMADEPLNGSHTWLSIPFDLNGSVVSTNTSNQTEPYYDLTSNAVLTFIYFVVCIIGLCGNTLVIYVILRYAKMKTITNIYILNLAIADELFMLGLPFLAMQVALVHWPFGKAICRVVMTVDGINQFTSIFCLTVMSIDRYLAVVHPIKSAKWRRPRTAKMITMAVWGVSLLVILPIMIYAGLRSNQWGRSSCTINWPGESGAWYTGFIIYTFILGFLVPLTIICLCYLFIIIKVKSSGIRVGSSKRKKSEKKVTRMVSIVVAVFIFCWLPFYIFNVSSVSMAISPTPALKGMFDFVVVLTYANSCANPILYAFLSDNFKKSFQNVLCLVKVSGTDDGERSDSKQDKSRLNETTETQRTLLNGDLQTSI

Question: Which EC50 does the source give for `N#Cc1cccc(-c2ccc3ncc(-c4cc(F)cc(F)c4)c(N4CCC(N)CC4)c3c2)c1OCC(=O)O` [2-56, 2-{2-[4-(4-aminopiperidin-1-yl)-3-(3,5-difluorophenyl)quinolin-6-yl]-6-cyanophenoxy}acetic acid] here?
Answer: 10 to 100 nM

Question: For `Cc1cc(F)cc(-c2cnc3ccc(-c4cc(F)cc(C#N)c4O)cc3c2N2CC(CNC3COC3)C2)c1` [2-33, 5-fluoro-3-[3-(3-fluoro-5-methylphenyl)-4-(3-{[(oxetan-3-yl)amino]methyl}azetidin-1-yl)quinolin-6-yl]-2-hydroxybenzonitrile], which EC50 is on record?
Answer: 10 to 100 nM

Question: How did the EC50 turn out when `COc1cc(F)cc(-c2cnc3ccc(-c4cccc(F)c4NC(=O)N4CCC4)cc3c2N2CCC(N)CC2)c1` [2-175, N-{2-[4-(4-aminopiperidin-1-yl)-3-(3-fluoro-5-methoxyphenyl)quinolin-6-yl]-6-fluorophenyl}azetidine-1-carboxamide] was run?
Answer: 10 to 100 nM

Question: `CONC(=O)Nc1nccc(C)c1-c1ccc2ncc(-c3cc(C)cc(F)c3)c(N3CCC(N)CC3)c2c1` [2-215, 1-{3-[4-(4-aminopiperidin-1-yl)-3-(3-fluoro-5-methylphenyl)quinolin-6-yl]-4-methylpyridin-2-yl}-3-methoxyurea] was tested. Which EC50 did it give?
Answer: 10 to 100 nM

Question: Which EC50 does the source give for `N#Cc1cccc(-c2ccc3ncc(-c4cc(F)cc(OC5COC5)c4)c(N4CCC(N)CC4)c3c2)c1O` [2-69, 3-[4-(4-aminopiperidin-1-yl)-3-[3-fluoro-5-(oxetan-3-yloxy)phenyl]quinolin-6-yl]-2-hydroxybenzonitrile] here?
Answer: 10 to 100 nM

Question: Which EC50 does the source give for `CO[C@@H]1CN(c2c(-c3cc(F)cc(F)c3)cnc3ccc(-c4cccc(C#N)c4O)cc23)CC[C@@H]1N` [2-66, 3-{4-[(3R,4S)-4-amino-3-methoxypiperidin-1-yl]-3-(3,5-difluorophenyl)quinolin-6-yl}-2-hydroxybenzonitrile] here?
Answer: 10 to 100 nM

Same assay, conditions: CHO-K1 cells stably expressing human SSTR2; NKH477-stimulated cAMP; read-out: EC50 (inhibition of cAMP activities via human SST2R)

Question: How did the EC50 turn out when `Cc1cc(F)cc(-c2cnc3ccc(-c4cncc(Cl)c4N)cc3c2N2CCC(N)CC2)c1` [2-181, 3-[4-(4-aminopiperidin-1-yl)-3-(3-fluoro-5-methylphenyl)quinolin-6-yl]-5-chloropyridin-4-amine] was run?
Answer: < 10 nM

Question: Which EC50 does the source give for `Cc1cc(F)cc(-c2cnc3ccc(-c4cccc(F)c4/C=N/O)cc3c2N2CC[C@@H](N)[C@@H](O)C2)c1` (racemic) [2-227, cis-4-amino-1-(6-{3-fluoro-2-[(hydroxyimino)methyl]phenyl}-3-(3-fluoro-5-methylphenyl)quinolin-4-yl)piperidin-3-ol] here?
Answer: < 10 nM

Question: With `COCCNc1ncc(F)cc1-c1ccc2ncc(-c3cc(C)cc(F)c3)c(N3CCC(N)CC3)c2c1` [2-234, 3-[4-(4-aminopiperidin-1-yl)-3-(3-fluoro-5-methylphenyl)quinolin-6-yl]-5-fluoro-N-(2-methoxyethyl)pyridin-2-amine] as the compound, how does the EC50 read?
Answer: < 10 nM

Question: How did the EC50 turn out when `CON=Cc1cccc(-c2ccc3ncc(-c4cc(C)cc(F)c4)c(N4CCC(N)CC4)c3c2)c1O` [2-115, 2-[4-(4-aminopiperidin-1-yl)-3-(3-fluoro-5-methylphenyl)quinolin-6-yl]-6-[(methoxyimino)methyl]phenol] was run?
Answer: < 10 nM

Question: For `NC1CCN(c2c(-c3cc(F)cc(F)c3)cnc3ccc(-c4ccnc(C=NO)c4)cc23)CC1` [2-203, 1-[3-(3,5-difluorophenyl)-6-{2-[(hydroxyimino)methyl]pyridin-4-yl}quinolin-4-yl]piperidin-4-amine], which EC50 is on record?
Answer: < 10 nM

Question: With `Cc1ccnc(-c2ccc3ncc(-c4cc(F)cc(F)c4)c(N4CCC(N)CC4)c3c2)c1N` [2-250, 2-[4-(4-aminopiperidin-1-yl)-3-(3,5-difluorophenyl)quinolin-6-yl]-4-methylpyridin-3-amine] as the compound, how does the EC50 read?
Answer: < 10 nM

Question: Which EC50 does the source give for `Nc1cccnc1-c1ccc2ncc(-c3cc(F)cc(F)c3)c(N3CC[C@H]4NCCO[C@@H]4C3)c2c1` (relative stereo) [2-283, 2-{4-[trans-octahydro-1H-pyrido[3,4-b]morpholin-6-yl]-3-(3,5-difluorophenyl)quinolin-6-yl}pyridin-3-amine] here?
Answer: 10 to 100 nM

Question: Which EC50 does the source give for `CO[C@@H]1CN(c2c(-c3cc(F)cc(F)c3)cnc3ccc(-c4cccc(C#N)c4)cc23)CC[C@H]1N` (relative stereo) [2-4, 3-{4-[trans-4-amino-3-methoxypiperidin-1-yl]-3-(3,5-difluorophenyl)quinolin-6-yl}benzonitrile] here?
Answer: < 10 nM

Question: With `CCCNCC1CN(c2c(-c3cc(C)cc(F)c3)cnc3ccc(-c4cc(F)c5[nH]c(=O)[nH]c5c4)cc23)C1` [2-55, 4-fluoro-6-[3-(3-fluoro-5-methylphenyl)-4-{3-[(propylamino)methyl]azetidin-1-yl}quinolin-6-yl]-2,3-dihydro-1H-1,3-benzodiazol-2-one] as the compound, how does the EC50 read?
Answer: < 10 nM

Question: For `COCOc1c(C#N)cccc1-c1ccc2ncc(-c3cc(F)cc(F)c3)c(N3CCC(N)CC3)c2c1` [2-78, 3-[4-(4-aminopiperidin-1-yl)-3-(3,5-difluorophenyl)quinolin-6-yl]-2-(methoxymethoxy)benzonitrile], which EC50 is on record?
Answer: < 10 nM

Question: For `CON=Cc1cc(F)cc(-c2ccc3ncc(-c4cc(C)cc(F)c4)c(N4CCC(N)CC4)c3c2)c1O` [2-116, 2-[4-(4-aminopiperidin-1-yl)-3-(3-fluoro-5-methylphenyl)quinolin-6-yl]-4-fluoro-6-[(methoxyimino)methyl]phenol], which EC50 is on record?
Answer: < 10 nM

Question: For `CC(=O)OCCOc1c(C#N)cccc1-c1ccc2ncc(-c3cc(F)cc(F)c3)c(N3CCC(N)CC3)c2c1` [2-64, 2-{2-[4-(4-aminopiperidin-1-yl)-3-(3,5-difluorophenyl)quinolin-6-yl]-6-cyanophenoxy}ethyl acetate], which EC50 is on record?
Answer: < 10 nM

Question: For `CCCNCC1CN(c2c(-c3cc(C)cc(F)c3)cnc3ccc(-c4cc(F)cc(C#N)c4O)cc23)C1` [2-31, 5-fluoro-3-[3-(3-fluoro-5-methylphenyl)-4-{3-[(propylamino)methyl]azetidin-1-yl}quinolin-6-yl]-2-hydroxybenzonitrile], which EC50 is on record?
Answer: < 10 nM

Question: How did the EC50 turn out when `COC(=O)Nc1c(F)cc(F)cc1-c1ccc2ncc(-c3cc(C)cc(F)c3)c(N3CC[C@@H](N)[C@H](OC)C3)c2c1` (relative stereo) [2-235, methyl N-(2-{4-[trans-4-amino-3-methoxypiperidin-1-yl]-3-(3-fluoro-5-methylphenyl)quinolin-6-yl}-4,6-difluorophenyl)carbamate] was run?
Answer: < 10 nM

Question: For `Cc1cc(F)cc(-c2cnc3ccc(-c4cc(F)cc(C#N)c4O)cc3c2N2CC(CNCCF)C2)c1` [2-24, 5-fluoro-3-[3-(3-fluoro-5-methylphenyl)-4-(3-{[(2-fluoroethyl)amino]methyl}azetidin-1-yl)quinolin-6-yl]-2-hydroxybenzonitrile], which EC50 is on record?
Answer: < 10 nM

Question: `Cc1cc(F)cc(-c2nnc3cc(Cl)c(-c4cc(F)cc(C(N)=O)c4)cc3c2N2CC[C@@H](N)[C@H](F)C2)c1` (relative stereo) [1-5, 3-{4-[trans-4-amino-3-fluoropiperidin-1-yl]-7-chloro-3-(3-fluoro-5-methylphenyl)cinnolin-6-yl}-5-fluorobenzamide] was tested. Which EC50 did it give?
Answer: < 10 nM

Question: How did the EC50 turn out when `CO/N=C/c1cccc(-c2ccc3ncc(-c4cc(F)cc(F)c4)c(N4CC[C@H]5NCCO[C@@H]5C4)c3c2)c1O` (racemic) [2-243, 2-{4-[trans-octahydro-1H-pyrido[3,4-b]morpholin-6-yl]-3-(3,5-difluorophenyl)quinolin-6-yl}-6-(methoxyiminomethyl)phenol] was run?
Answer: < 10 nM

Question: Which EC50 does the source give for `Cc1cc(F)cc(-c2cnc3ccc(-c4ccc5[nH]c(=O)[nH]c5c4)cc3c2N2CCC(N)CC2)c1` [2-9, 5-[4-(4-aminopiperidin-1-yl)-3-(3-fluoro-5-methylphenyl)quinolin-6-yl]-2,3-dihydro-1H-1,3-benzodiazol-2-one] here?
Answer: < 10 nM

Question: `Cc1cc(F)cc(-c2cnc3ccc(-c4cccc5[nH]c(=O)[nH]c45)cc3c2N2CCC(N)CC2)c1` [2-8, 4-[4-(4-aminopiperidin-1-yl)-3-(3-fluoro-5-methylphenyl)quinolin-6-yl]-2,3-dihydro-1H-1,3-benzodiazol-2-one] was tested. Which EC50 did it give?
Answer: < 10 nM

Question: With `Oc1c(F)cccc1-c1ccc2ncc(-c3cc(F)cc(F)c3)c(N3CC[C@H]4NCCO[C@@H]4C3)c2c1` (racemic) [2-144, trans-2-[3-(3,5-difluorophenyl)-4-{octahydro-1H-pyrido[3,4-b]morpholin-6-yl}quinolin-6-yl]-6-fluorophenol] as the compound, how does the EC50 read?
Answer: < 10 nM

Question: With `Cc1cc(F)cc(-c2cnc3ccc(-c4cccc(C#N)c4O)cc3c2N2CCC(N)CC2)c1` [2-1, 3-[4-(4-aminopiperidin-1-yl)-3-(3-fluoro-5-methylphenyl)quinolin-6-yl]-2-hydroxybenzonitrile] as the compound, how does the EC50 read?
Answer: < 10 nM

Question: For `Cc1cc(F)cc(-c2cnc3ccc(-c4ccc5[nH]c(=O)[nH]c5c4)nc3c2N2CCC(N)CC2)c1` [3-4, 5-[8-(4-aminopiperidin-1-yl)-7-(3-fluoro-5-methylphenyl)-1,5-naphthyridin-2-yl]-2,3-dihydro-1H-1,3-benzodiazol-2-one], which EC50 is on record?
Answer: < 10 nM

Question: With `CCNCC1CN(c2c(-c3cc(C)cc(F)c3)cnc3ccc(-c4c(C)ccc(F)c4O)cc23)C1` [2-38, 2-(4-{3-[(ethylamino)methyl]azetidin-1-yl}-3-(3-fluoro-5-methylphenyl)quinolin-6-yl)-6-fluoro-3-methylphenol] as the compound, how does the EC50 read?
Answer: < 10 nM

Question: Which EC50 does the source give for `CONC(=O)Nc1ncc(F)cc1-c1ccc2ncc(-c3cc(C)cc(F)c3)c(N3CCC(N)CC3)c2c1` [2-183, 1-{3-[4-(4-aminopiperidin-1-yl)-3-(3-fluoro-5-methylphenyl)quinolin-6-yl]-5-fluoropyridin-2-yl}-3-methoxyurea] here?
Answer: < 10 nM

Question: `Cn1ncc(-c2ccc3ncc(-c4cc(F)cc(F)c4)c(N4CCC(N)CC4)c3c2)c1C=NO` [2-188, 1-[3-(3,5-difluorophenyl)-6-{5-[(hydroxyimino)methyl]-1-methyl-1H-pyrazol-4-yl}quinolin-4-yl]piperidin-4-amine] was tested. Which EC50 did it give?
Answer: < 10 nM

Question: Which EC50 does the source give for `Cc1cc(F)cc(-c2cnc3ccc(-c4cc(F)cc(C#N)c4O)cc3c2N2CC[C@H](N)[C@H](O)C2)c1` (relative stereo) [2-219, cis-3-{4-[4-amino-3-hydroxypiperidin-1-yl]-3-(3-fluoro-5-methylphenyl)quinolin-6-yl}-5-fluoro-2-hydroxybenzonitrile] here?
Answer: < 10 nM
